Reference: ChEMBL document CHEMBL6182861, “Structural modification of heptamethine indocyanine dyes with improved aqueous solubility and stability for photothermal therapy” (Eur J Med Chem, 2025)
Active and inactive are the calls of the source. No cut-off for these calls is given here.

Legend:
[1] = Photothermal property of compound assessed as increase in photothermal conversion efficiency at 20 uM exposed to laser irradiation of 808 nm for 2 mins; format: functional
[2] = Photothermal stability of compound at 60 degreeC at 20 uM exposed to laser irradiation of 808 nm for 2.5 mins; format: physicochemical
[3] = Photosensitizing property of compound assessed as generation of singlet-state oxygen by ESR spectrometry; format: functional
[4] = Photosensitizing property of compound assessed as generation of singlet-state oxygen at 10 uM exposed to laser irradiation of 808 nm for 2 mins by SOSG probe based analysis; format: functional
[5] = Drug uptake in mouse 4T1 cells assessed as increase in fluorescence intensity at 3.12 uM incubated for 4 hrs by flow cytometry; format: ADME, cell-based; settings: 4t1, 4 h
[6] = Drug uptake in human HepG2 cells assessed as increase in fluorescence intensity at 3.12 uM incubated for 4 hrs by flow cytometry; format: ADME, cell-based; settings: hepg2, 4 h
[7] = Drug uptake in mouse 4T1 cells assessed as increase in fluorescence intensity at 3.12 uM incubated for 4 hrs by CLSM; format: ADME, cell-based; settings: 4t1, 4 h
[8] = Drug uptake in human HepG2 cells assessed as increase in fluorescence intensity at 3.12 uM incubated for 4 hrs by CLSM; format: ADME, cell-based; settings: hepg2, 4 h
[9] = test system: 4T1; assay: Photothermal cytotoxicity against mouse 4T1 cells assessed as survival rate at 3.12 uM preincubated for 4 hrs followed by exposure to laser irradiation of 808 nm for 2 mins and subsequent incubation for 20 hrs by MTT assay relative to control; format: functional; settings: 4T1, light or radiation study, 24.03 h, time 1442 min, read-out: Survival
[10] = test system: HepG2; assay: Cytotoxicity against human HepG2 cells assessed as cell viability under dark condition up to 25 uM incubated for 24 hrs by MTT assay relative to control; format: functional
[11] = Cytotoxicity against mouse NIH3T3 cells assessed as survival rate at 25 uM relative to control; format: toxicity, cell-based; settings: read-out: Survival
[12] = test system: 4T1; assay: Induction of ROS generation in mouse 4T1 cells at 3.12 uM incubated for 4 hrs followed by exposure to laser irradiation of 808 nm for 2 mins by flow cytometry; format: functional, cell-based; settings: time 242.0 min
[13] = test system: 4T1; assay: Induction of ROS generation in mouse 4T1 cells at 3.12 uM incubated for 4 hrs followed by exposure to laser irradiation of 808 nm for 2 mins by DCFH-DA probe based CLSM; format: functional, cell-based; settings: time 242.0 min
[14] = test system: HepG2; assay: Induction of ROS generation in human HepG2 cells at 3.12 uM incubated for 4 hrs followed by exposure to laser irradiation of 808 nm for 2 mins by flow cytometry; format: functional, cell-based; settings: time 242.0 min
[15] = test system: HepG2; assay: Induction of ROS generation in human HepG2 cells at 3.12 uM incubated for 4 hrs followed by exposure to laser irradiation of 808 nm for 2 mins by DCFH-DA probe based CLSM; format: functional, cell-based; settings: time 242.0 min
[16] = test system: Mitochondrial membrane; assay: Inhibition of mitochondrial membrane potential in mouse 4T1 cells at 3.12 uM preincubated for 4 hrs followed by exposure to laser irradiation of 808 nm for 2 mins and subsequent incubation for 20 hrs by flow cytometry; format: cell membranes; settings: time 1442.0 min
[17] = test system: Mitochondrial membrane; assay: Inhibition of mitochondrial membrane potential in mouse 4T1 cells at 3.12 uM preincubated for 4 hrs followed by exposure to laser irradiation of 808 nm for 2 mins and subsequent incubation for 20 hrs by Rh123 probe based CLSM; format: cell membranes; settings: time 1442.0 min
[18] = test system: Mitochondrial membrane; assay: Inhibition of mitochondrial membrane potential in human HepG2 cells at 3.12 uM preincubated for 4 hrs followed by exposure to laser irradiation of 808 nm for 2 mins and subsequent incubation for 20 hrs by flow cytometry; format: cell membranes; settings: time 1442.0 min
[19] = test system: Mitochondrial membrane; assay: Inhibition of mitochondrial membrane potential in human HepG2 cells at 3.12 uM preincubated for 4 hrs followed by exposure to laser irradiation of 808 nm for 2 mins and subsequent incubation for 20 hrs by Rh123 probe based CLSM; format: cell membranes; settings: time 1442.0 min
[20] = test system: Mitochondrial membrane; assay: Inhibition of mitochondrial membrane potential in mouse 4T1 cells at 3.12 uM incubated for 24 hrs by flow cytometry; format: cell membranes
[21] = test system: Mitochondrial membrane; assay: Inhibition of mitochondrial membrane potential in mouse 4T1 cells at 3.12 uM incubated for 24 hrs by Rh123 probe based CLSM; format: cell membranes
[22] = test system: Mitochondrial membrane; assay: Inhibition of mitochondrial membrane potential in human HepG2 cells at 3.12 uM incubated for 24 hrs by flow cytometry; format: cell membranes
[23] = test system: Mitochondrial membrane; assay: Inhibition of mitochondrial membrane potential in human HepG2 cells at 3.12 uM incubated for 24 hrs by Rh123 probe based CLSM; format: cell membranes
[24] = test system: 4T1; assay: Induction of apoptosis in mouse 4T1 cells at 3.12 uM incubated for 4 hrs followed by exposure to laser irradiation of 808 nm for 2 mins by Annexin V-FITC/PI staining based flow cytometry; format: functional, cell-based; settings: time 242.0 min
[25] = test system: HepG2; assay: Induction of apoptosis in human HepG2 cells at 3.12 uM incubated for 4 hrs followed by exposure to laser irradiation of 808 nm for 2 mins by Annexin V-FITC/PI staining based flow cytometry; format: functional, cell-based; settings: time 242.0 min
[26] = Drug accumulation in tumor of female BALB/c mouse bearing mouse 4T1 cells at 2.5 mg/kg, iv measured up to 12 hrs by fluorescence imaging analysis; format: ADME, organism-based, Neoplasm; settings: in vivo
[27] = Drug excretion in female BALB/c mouse bearing mouse 4T1 cells at 2.5 mg/kg, iv measured up to 12 hrs by fluorescence imaging analysis; format: ADME, organism-based; settings: in vivo
[28] = test system: 4T1; assay: Antitumor activity against mouse 4T1 cells implanted in female BALB/c mouse assessed as cellular damage at 2.5 mg/kg, iv pretreated for 4 hrs followed by exposure to laser irradiation of 808 nm for 5 mins on every 2 days treated for 15 days by H and E staining based analysis; format: functional, organism-based; settings: time 15.0 day
[29] = test system: 4T1; assay: Antitumor activity against mouse 4T1 cells implanted in female BALB/c mouse assessed as necrotic tissue at 2.5 mg/kg, iv pretreated for 4 hrs followed by exposure to laser irradiation of 808 nm for 5 mins on every 2 days treated for 15 days by H and E staining based analysis; format: functional, organism-based; settings: time 15.0 day
[30] = Toxicity in ICR mouse bearing mouse H22 cells assessed as damage in heart at 2.5 mg/kg, iv pretreated for 4 hrs followed by exposure to laser irradiation of 808 nm for 5 mins on every 2 days treated for 15 days by H and E staining based analysis; format: organism-based; settings: in vivo, 360 h, time 15 day
[31] = Toxicity in ICR mouse bearing mouse H22 cells assessed as damage in spleen at 2.5 mg/kg, iv pretreated for 4 hrs followed by exposure to laser irradiation of 808 nm for 5 mins on every 2 days treated for 15 days by H and E staining based analysis; format: organism-based; settings: in vivo, 360 h, time 15 day
[32] = Drug accumulation in tumor of female BALB/c mouse bearing mouse 4T1 cells at 1.8 mg/kg, iv measured up to 12 hrs by fluorescence imaging analysis; format: ADME, organism-based, Neoplasm; settings: in vivo
[33] = test system: 4T1; assay: Antitumor activity against mouse 4T1 cells implanted in female BALB/c mouse assessed as cellular damage at 1.8 mg/kg, iv treated on every 2 days treated for 15 days by H and E staining based analysis; format: functional, organism-based; settings: time 15.0 day
[34] = Toxicity in female BALB/c mouse bearing mouse 4T1 cells assessed as damage in kidney at 1.8 mg/kg, iv pretreated for 4 hrs followed by exposure to laser irradiation of 808 nm for 5 mins on every 2 days treated for 15 days by H and E staining based analysis; format: organism-based; settings: in vivo, 360 h, time 15 day

## COCCOCCOCCN1/C(=C/C=C/C(=C/C=C/C2=[N+](CCOCCOCCOC)c3ccccc3C2(C)C)C(=O)OC)C(C)(C)c2ccccc21.[I-]
[1]
  Activity: Active; Highest Efficiency Observed Among Tested Compounds
[2]
  Stability: Stable
[3]
  Activity: Active
[4]
  Activity: Active
[5]
  Drug uptake: Active
[6]
  Drug uptake: Active
[7]
  Drug uptake: Active
[8]
  Drug uptake: Active
[9]
  viability at 3.12 µM: 36%
[10]
  Activity: 55%
[11]
  viability at 25 µM: > 60%
[12]
  Activity: Active; Exhibited Only A Smaller Increase In Activity
[13]
  Activity: Active; Exhibited Only A Smaller Increase In Activity
[14]
  Activity: Active; Exhibited Only A Smaller Increase In Activity
[15]
  Activity: Active; Exhibited Only A Smaller Increase In Activity
[16]
  inhibition: Active; Significant Inhibition Was Observed
[17]
  inhibition: Active; Significant Inhibition Was Observed
[18]
  inhibition: Active; Significant Inhibition Was Observed
[19]
  inhibition: Active; Significant Inhibition Was Observed
[20]
  inhibition: Active; Certain Degree Of Inhibition Was Observed
[21]
  inhibition: Active; Certain Degree Of Inhibition Was Observed
[22]
  inhibition: Active; Certain Degree Of Inhibition Was Observed
[23]
  inhibition: Active; Certain Degree Of Inhibition Was Observed
[24]
  Activity: Active
[25]
  Activity: Active
[26]
  Drug uptake: Active
[27]
  Drug excretion: Active
[28]
  Activity: Active
[29]
  Activity: Active
[30]
  Activity: Non-toxic
[31]
  Activity: Non-toxic

## COC(=O)C(=C\C=C\C1=[N+](C)c2ccccc2C1(C)C)/C=C/C=C1/N(C)c2ccccc2C1(C)C.[I-]
[1]
  Activity: Not active; Lowest Efficiency Observed Among Tested Compounds
[2]
  Stability: Unstable
[3]
  Activity: Active
[4]
  Activity: inactive
[5]
  Drug uptake: Active
[6]
  Drug uptake: Active
[7]
  Drug uptake: Active
[8]
  Drug uptake: Active
[11]
  viability at 25 µM: > 60%
[12]
  Activity: Active
[13]
  Activity: Active
[14]
  Activity: Active
[15]
  Activity: Active
[16]
  inhibition: Active; Significant Inhibition Was Observed
[17]
  inhibition: Active; Significant Inhibition Was Observed
[18]
  inhibition: Active; Significant Inhibition Was Observed
[19]
  inhibition: Active; Significant Inhibition Was Observed
[20]
  inhibition: Active; Certain Degree Of Inhibition Was Observed
[21]
  inhibition: Active; Certain Degree Of Inhibition Was Observed
[22]
  inhibition: Active; Certain Degree Of Inhibition Was Observed
[23]
  inhibition: Active; Certain Degree Of Inhibition Was Observed
[24]
  Activity: Active
[25]
  Activity: Active
[32]
  Drug uptake: Active
[33]
  Activity: Not active; Minor Cell Damage Was Observed
[34]
  Activity: Non-toxic
